Data as given in US10849902B2, “Medicament for treating heart failure” (TAKEDA PHARMACEUTICAL COMPANY LIMITED, priority 2015, dated 2020).

Key:
CSQ-Tg mice [1] = assay: Improvement effect on left ventricular hypertrophy and lung weight increase in CSQ-Tg mice; assay type: in vivo; settings: CSQ-Tg female mice, 5 weeks old, 30 mg/kg body weight/day oral QD for 14 days, n=10; p<0.05 vs vehicle (t-test)
Experimental: (§1) Calsequestrin (CSQ) cardiac specific transgenic mice (CSQ-Tg mice), which were reported in Larry R. Jones et al., J. Clin. Invest. 101: 1385-1393, 1998, were obtained from University of Pennsylvania, breeded in our company and put in use. In tests, using male and female mice, administration of a medicament was started on and after the mice reached 5 weeks old. The animals were raised in the conditions: room temperature: 20 to 26° c., humidity: 40 to 70%, illumination time: 12 hours/day (7:00-19:00) by giving a solid feed (CE-2, manufactured by CLEA Japan, Inc.) and tap water. In the CSQ-Tg mice, as already reported, Ca^2+ intracellular release was suppressed; myocardial contraction declined and cardiac output decreased. Cardiac hypertrophy and heart failure developed.
In this example, the effect of compound A′ in improving left ventricular hypertrophy and lung weight increase caused by heart failure was examined.
Compound A′ was suspended in a 0.5% aqueous methylcellulose solution (10 mL/kg) and orally administered to CSQ-Tg female mice of 5 weeks old with heart failure in a dosage of 30 mg/kg body weight/day once per day (QD) for 14 days (n=10). […] Thereafter, lung weight (Lung), left-ventricle weight (LV) and body weight (BW) were individually measured and were standardized with the BW.

CSQ-Tg mice [2] = assay: Atrial weight reduction effect in heart failure model animal (CSQ-Tg mice); assay type: in vivo; settings: CSQ-Tg male mice, 5 weeks old, 30 mg/kg body weight/day oral QD for 14 days, n=7; p<0.05 vs vehicle (t-test)
Experimental: as §1
In this example, using CSQ-Tg mice as a heart failure model animal, the atrial weight reduction effect of compound A′ was evaluated.
Compound A′ was suspended (10 mL/kg) in a 0.5% aqueous methylcellulose solution (hereinafter in Examples, sometimes referred to as a “vehicle”) and orally administered to CSQ-Tg male mice of 5 weeks old with heart failure in a dosage of 30 mg/kg body weight/day once per day (QD) for 14 days (n=7). To negative control (vehicle administration group) mice, a 0.5% aqueous methylcellulose solution was administered (n=9). Thereafter, the atrial weight of the mice was measured.

CSQ-Tg mice [3] = assay: Effect on survival rate of heart failure model animals (CSQ-Tg mice); assay type: in vivo; settings: CSQ-Tg female mice, 5 weeks old, 30 mg/kg body weight/day oral QD for 30 days, n=30; log-rank test p<0.001 vs vehicle
Experimental: as §1
In this example, effect of compound A′ on survival rate of heart failure model animals was examined.
Compound A′ was orally administered to CSQ-Tg female mice (n=30) of 5 weeks old in a dosage of 30 mg/kg body weight/day once per day (QD) for 30 days. To negative control (vehicle administration group) mice, a 0.5% aqueous methylcellulose solution was administered (n=30).

[4] = drug administered after the cardiac load is given; Non patent literature 6; cited from earlier work
[5] = system: transverse aortic constriction (TAC) model; settings: Non patent literature 5; cited from earlier work

Row | SMILES | LV/BW (left-ventricle weight standardized with body weight), average value ± standard deviation (CSQ-Tg mice [1]) | Lung/BW (lung weight standardized with body weight), average value ± standard deviation (CSQ-Tg mice [1]) | Left atrial weight, average value (CSQ-Tg mice [2]) [mg] | Survival rate (Kaplan-Meier, FIG. 1) (CSQ-Tg mice [3]) | Cardiac hypofunction [4] | Cardiac hypertrophy [5]
1 | CCc1ccc(C(CC)(CC)NC(=O)c2c(C)nn3c2N[C@@H](c2ccccc2)CC3(C)C)cc1 [Compound A′] | 7.9 ± 1.0 | 6.8 ± 1.3 | 8.4 | significantly improved | – | –
2 | C[C@@H](N[C@H]1CCCC[C@@H]1NC(=O)c1ccc(Cl)cc1)c1cccc2ccccc12 [Calhex231] | – | – | – | – | cardiac hypofunction is not improved | cardiac hypertrophy is improved
